According to patent US20120101032A1, “NOVEL MACROCYCLIC INHIBITORS OF HEPATITIS C VIRUS REPLICATION” (priority 2010, published 2012):
Read-outs that look alike come from different tables or passages of the source.

Columns and labels:
[1] = tested on: hepatitis C replicon; experiment: hepatitis C replicon EC50 assay; format: cell-based; conditions: Hepatitis C virus
Source text: NS3-NS4 inhibition activity can be determined using known assay methods.

[2] = biological target: NS3/NS4 complexes (Hepatitis C virus genotype 1a, UniProt P27958); experiment: biochemical; conditions: NS3-NS4 activity; 23° C., pH 7.5, 25 μM NS4A peptide; read-out: IC50
Source text: NS3-NS4 inhibition activity can be determined using known assay methods. For example, NS3/NS4 complexes may be formed and inhibitory concentrations of test compounds determined as described in U.S. Patent Application Publication Number 2007/0054842 paragraph numbers 1497-1509, which is incorporated herein by reference in its entirety. Similarly, hepatitis C replicon EC50 may be determined using known assay methods such as described in U.S. Patent Application Publication Number 2007/0054842 paragraph numbers 1510-1515, which is incorporated herein by reference in its entirety. Assays may be conducted at ambient temperature (23° C.) in assay buffer containing 50 mM Tris-HCl, pH 7.5, 15% glycerol, 0.6 mM Lauryldimethylamine Oxide (LDAO), 25 μM NS4A peptide, and 10 mM Dithiothreitol (DTT).

[3] = hepatitis C replicon, read-out: EC50

NS3/NS4 complexes, sequence (P27958 1027-1657, one chain of several): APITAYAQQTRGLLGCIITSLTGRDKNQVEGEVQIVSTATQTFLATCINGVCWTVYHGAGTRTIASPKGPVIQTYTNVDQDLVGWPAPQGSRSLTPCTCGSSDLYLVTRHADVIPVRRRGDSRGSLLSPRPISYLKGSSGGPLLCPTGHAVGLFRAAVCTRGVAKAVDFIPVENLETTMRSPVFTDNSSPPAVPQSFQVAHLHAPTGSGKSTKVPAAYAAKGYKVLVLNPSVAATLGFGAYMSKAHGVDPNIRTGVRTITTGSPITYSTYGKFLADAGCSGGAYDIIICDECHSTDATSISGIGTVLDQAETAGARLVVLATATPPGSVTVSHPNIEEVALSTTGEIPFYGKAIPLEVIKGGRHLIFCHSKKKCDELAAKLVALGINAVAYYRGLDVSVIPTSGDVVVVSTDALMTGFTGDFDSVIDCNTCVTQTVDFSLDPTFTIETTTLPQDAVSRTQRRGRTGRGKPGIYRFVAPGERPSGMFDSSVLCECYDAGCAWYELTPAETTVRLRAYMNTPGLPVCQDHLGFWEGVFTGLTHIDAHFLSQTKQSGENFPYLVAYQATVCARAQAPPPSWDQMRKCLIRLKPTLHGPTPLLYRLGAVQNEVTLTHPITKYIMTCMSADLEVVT

CC(C)n1c(O[C@@H]2C[C@H]3C(=O)N[C@]4(C(=O)NS(=O)(=O)C5(C)CC5)C[C@H]4/C=C\CCCCC[C@H](NC(=O)OC(C)(C)C)C(=O)N3C2)nc2c(-c3csc(N4CCCC4)n3)cccc21 [Compound 125]
EC50 [1, 3]: < 10 nM | IC50 [2]: < 10 nM

Cc1cccc(Cc2csc(-c3cccc4c3nc(O[C@@H]3C[C@H]5C(=O)N[C@]6(C(=O)NS(=O)(=O)N(C)C)C[C@H]6/C=C\CCCCC[C@H](NC(=O)OC(C)(C)C)C(=O)N5C3)n4C(C)C)n2)c1 [Compound 144]
EC50 [1, 3]: < 10 nM | IC50 [2]: < 10 nM

CC(C)n1c(O[C@@H]2C[C@H]3C(=O)N[C@]4(C(=O)NS(=O)(=O)C5(C)CC5)C[C@H]4/C=C\CCCCC[C@H](NC(=O)OC(C)(C)C)C(=O)N3C2)nc2c(-c3cnccn3)cccc21 [Compound 126]
EC50 [1, 3]: < 10 nM | IC50 [2]: < 10 nM

CC(C)n1c(O[C@@H]2C[C@H]3C(=O)N[C@]4(C(=O)NS(=O)(=O)C5(C)CC5)C[C@H]4/C=C\CCCCC[C@H](NC(=O)O[C@@H]4C[C@@H]5C[C@@H]5C4)C(=O)N3C2)nc2c(-c3nc(Cc4ccccc4)cs3)cccc21 [Compound 166]
EC50 [1, 3]: < 10 nM | IC50 [2]: < 10 nM

CC(C)n1c(O[C@@H]2C[C@H]3C(=O)N[C@]4(C(=O)NS(=O)(=O)N(C)C)C[C@H]4/C=C\CCCCC[C@H](NC(=O)OC(C)(C)C)C(=O)N3C2)nc2c(-c3nc(-c4cccc(Cl)c4)cs3)cccc21 [Compound 130]
EC50 [1, 3]: 10 to 100 nM | IC50 [2]: < 10 nM

CC(C)(C)OC(=O)N[C@H]1CCCCC/C=C\[C@@H]2C[C@@]2(C(=O)NS(=O)(=O)C2(C)CC2)NC(=O)[C@@H]2C[C@@H](Oc3ncnc4c3CCCC4)CN2C1=O [Compound 301]
EC50 [1, 3]: 10 to 100 nM | IC50 [2]: < 10 nM

COc1cccc(Cc2csc(-c3cccc4c3nc(O[C@@H]3C[C@H]5C(=O)N[C@]6(C(=O)NS(=O)(=O)C7(C)CC7)C[C@H]6/C=C\CCCCC[C@H](NC(=O)OC(C)(C)C)C(=O)N5C3)n4C(C)C)n2)c1 [Compound 123]
EC50 [1, 3]: < 10 nM | IC50 [2]: < 10 nM

COc1ccccc1-c1csc(-c2cccc3c2nc(O[C@@H]2C[C@H]4C(=O)N[C@]5(C(=O)NS(=O)(=O)N(C)C)C[C@H]5/C=C\CCCCC[C@H](NC(=O)OC(C)(C)C)C(=O)N4C2)n3C(C)C)n1 [Compound 131]
EC50 [1, 3]: 10 to 100 nM | IC50 [2]: < 10 nM

CC(C)n1c(O[C@@H]2C[C@H]3C(=O)N[C@]4(C(=O)NS(=O)(=O)C5(C)CC5)C[C@H]4/C=C\CCCCC[C@H](NC(=O)OC(C)(C)C)C(=O)N3C2)nc2c(-c3nc(Cc4cccc(Br)c4)cs3)cccc21 [Compound 117]
EC50 [1, 3]: 10 to 100 nM | IC50 [2]: < 10 nM

COc1ccccc1-c1csc(-c2cccc3c2nc(O[C@@H]2C[C@H]4C(=O)N[C@]5(C(=O)NS(=O)(=O)C6(C)CC6)C[C@H]5/C=C\CCCCC[C@H](N)C(=O)N4C2)n3C(C)C)n1 [Compound 177]
EC50 [1, 3]: > 100 nM | IC50 [2]: < 10 nM

Cc1nc2cccc(-c3nc(C4CCCCC4)cs3)c2nc1O[C@@H]1C[C@H]2C(=O)N[C@]3(C(=O)NS(=O)(=O)C4(C)CC4)C[C@H]3/C=C\CCCCC[C@H](NC(=O)OC(C)(C)C)C(=O)N2C1 [Compound 703]
EC50 [1, 3]: < 10 nM | IC50 [2]: < 10 nM

CC(C)n1c(O[C@@H]2C[C@H]3C(=O)N[C@]4(C(=O)NS(=O)(=O)C5(C)CC5)C[C@H]4/C=C\CCCCC[C@H](NC(=O)OC(C)(C)C)C(=O)N3C2)nc2c(-c3nc(-c4ccc(Cl)c(Cl)c4)cs3)cccc21 [Compound 107]
EC50 [1, 3]: 10 to 100 nM | IC50 [2]: < 10 nM

CC(C)n1c(O[C@@H]2C[C@H]3C(=O)N[C@]4(C(=O)NS(=O)(=O)N(C)C)C[C@H]4/C=C\CCCCC[C@H](NC(=O)OC(C)(C)C)C(=O)N3C2)nc2c(-c3nc(-c4ccc(F)c(C(F)(F)F)c4)cs3)cccc21 [Compound 135]
EC50 [1, 3]: > 100 nM | IC50 [2]: < 10 nM

CC(C)n1c(O[C@@H]2C[C@H]3C(=O)N[C@]4(C(=O)NS(=O)(=O)C5(C)CC5)C[C@H]4/C=C\CCCCC[C@H](NC(=O)OC(C)(C)C)C(=O)N3C2)nc2c(-c3nc(-c4ccc(F)cc4F)cs3)cccc21 [Compound 111]
EC50 [1, 3]: 10 to 100 nM | IC50 [2]: < 10 nM

CC(C)n1c(O[C@@H]2C[C@H]3C(=O)N[C@]4(C(=O)NS(=O)(=O)C5(C)CC5)C[C@H]4/C=C\CCCCC[C@H](NC(=O)OC(C)(C)C)C(=O)N3C2)nc2c(-c3nc(Cc4cccc(C(F)(F)F)c4)cs3)cccc21 [Compound 119]
EC50 [1, 3]: 10 to 100 nM | IC50 [2]: < 10 nM

CC(C)(C)OC(=O)N[C@H]1CCCCC/C=C\[C@@H]2C[C@@]2(C(=O)NS(=O)(=O)C2(C)CC2)NC(=O)[C@@H]2C[C@@H](Oc3ccnc4c3CCCC4)CN2C1=O [Compound 403]
EC50 [1]: 10 to 100 nM | IC50 [2]: < 10 nM

CC(C)n1c(O[C@@H]2C[C@H]3C(=O)N[C@]4(C(=O)NS(=O)(=O)C5(C)CC5)C[C@H]4/C=C\CCCCC[C@H](NC(=O)OC(C)(C)C)C(=O)N3C2)nc2c(-c3nc(-c4ccc(F)c(F)c4)cs3)cccc21 [Compound 108]
EC50 [1, 3]: < 10 nM | IC50 [2]: < 10 nM

CC(C)n1c(O[C@@H]2C[C@H]3C(=O)N[C@]4(C(=O)NS(=O)(=O)C5(C)CC5)C[C@H]4/C=C\CCCCC[C@H](NC(=O)OC(C)(C)C)C(=O)N3C2)nc2c(-c3nc(-c4ccc(F)c(C(F)(F)F)c4)cs3)cccc21 [Compound 109]
EC50 [1, 3]: 10 to 100 nM | IC50 [2]: < 10 nM

CC(C)n1c(O[C@@H]2C[C@H]3C(=O)N[C@]4(C(=O)NS(=O)(=O)C5(C)CC5)C[C@H]4/C=C\CCCCC[C@H](NC(=O)OC(C)(C)C)C(=O)N3C2)nc2c(-c3nc(Cc4ccc(-c5ccccc5)cc4)cs3)cccc21 [Compound 118]
EC50 [1, 3]: < 10 nM | IC50 [2]: < 10 nM

CC(C)n1c(O[C@@H]2C[C@H]3C(=O)N[C@]4(C(=O)NS(=O)(=O)C5(C)CC5)C[C@H]4/C=C\CCCCC[C@H](NC(=O)OC(C)(C)C)C(=O)N3C2)nc2c(-c3nc(Cc4ccc(OC(F)(F)F)cc4)cs3)cccc21 [Compound 121]
EC50 [1, 3]: 10 to 100 nM | IC50 [2]: < 10 nM

CC(C)n1c(O[C@@H]2C[C@H]3C(=O)N[C@]4(C(=O)NS(=O)(=O)C5(C)CC5)C[C@H]4/C=C\CCCCC[C@H](NC(=O)OC(C)(C)C)C(=O)N3C2)nc2c(-c3csc(C(F)(F)F)n3)cccc21 [Compound 176]
EC50 [1, 3]: < 10 nM | IC50 [2]: < 10 nM

CC(C)n1c(O[C@@H]2C[C@H]3C(=O)N[C@]4(C(=O)NS(=O)(=O)N(C)C)C[C@H]4/C=C\CCCCC[C@H](NC(=O)OC(C)(C)C)C(=O)N3C2)nc2c(-c3nc(Cc4cccc(OC(F)(F)F)c4)cs3)cccc21 [Compound 150]
EC50 [1, 3]: 10 to 100 nM | IC50 [2]: < 10 nM

CC(C)n1c(O[C@@H]2C[C@H]3C(=O)N[C@]4(C(=O)NS(=O)(=O)N(C)C)C[C@H]4/C=C\CCCCC[C@H](NC(=O)OC(C)(C)C)C(=O)N3C2)nc2c(-c3nc(-c4ccc(C(F)(F)F)cc4)cs3)cccc21 [Compound 141]
EC50 [1, 3]: > 100 nM | IC50 [2]: < 10 nM

CC(C)n1c(O[C@@H]2C[C@H]3C(=O)N[C@]4(C(=O)NS(=O)(=O)C5CC5)C[C@H]4/C=C\CCCCC[C@H](NC(=O)OC(C)(C)C)C(=O)N3C2)nc2c(-c3nc(C4CCN(C)CC4)cs3)cccc21 [Compound 184]
EC50 [1, 3]: < 10 nM | IC50 [2]: < 10 nM

CC(C)n1c(O[C@@H]2C[C@H]3C(=O)N[C@]4(C(=O)NS(=O)(=O)C5(C)CC5)C[C@H]4/C=C\CCCCC[C@H](NC(=O)OC(C)(C)C)C(=O)N3C2)nc2c(-c3cncc(N4CCCC4)n3)cccc21 [Compound 128]
EC50 [1, 3]: < 10 nM | IC50 [2]: < 10 nM

CC(C)n1c(O[C@@H]2C[C@H]3C(=O)N[C@]4(C(=O)NS(=O)(=O)C5(C)CC5)C[C@H]4/C=C\CCCCC[C@H](NC(=O)OC(C)(C)C)C(=O)N3C2)nc2c(-c3csc(N4CCN(C)CC4)n3)cccc21 [Compound 127]
EC50 [1, 3]: < 10 nM | IC50 [2]: < 10 nM

CC(C)(C)OC(=O)N[C@H]1CCCCC/C=C\[C@@H]2C[C@@]2(C(=O)NS(=O)(=O)C2(C)CC2)NC(=O)[C@@H]2C[C@@H](Oc3nc4cccc(-c5nc(C6CCCCC6)cs5)c4nc3C(F)(F)F)CN2C1=O [Compound 701]
EC50 [1, 3]: > 100 nM | IC50 [2]: < 10 nM

CC(C)n1c(O[C@@H]2C[C@H]3C(=O)N[C@]4(C(=O)NS(=O)(=O)N(C)C)C[C@H]4/C=C\CCCCC[C@H](NC(=O)OC(C)(C)C)C(=O)N3C2)nc2c(-c3nc(-c4ccc(F)cc4F)cs3)cccc21 [Compound 139]
EC50 [1, 3]: 10 to 100 nM | IC50 [2]: < 10 nM

CC(C)n1c(O[C@@H]2C[C@H]3C(=O)N[C@]4(C(=O)NS(=O)(=O)C5(C)CC5)C[C@H]4/C=C\CCCCC[C@H](NC(=O)OC(C)(C)C)C(=O)N3C2)nc2c(-c3nc(-c4ccc(Br)cc4)cs3)cccc21 [Compound 106]
EC50 [1, 3]: > 100 nM | IC50 [2]: < 10 nM

Cc1ccccc1Cc1csc(-c2cccc3c2nc(O[C@@H]2C[C@H]4C(=O)N[C@]5(C(=O)NS(=O)(=O)C6(C)CC6)C[C@H]5/C=C\CCCCC[C@H](NC(=O)OC(C)(C)C)C(=O)N4C2)n3C(C)C)n1 [Compound 114]
EC50 [1, 3]: < 10 nM | IC50 [2]: < 10 nM

CC(C)n1c(O[C@@H]2C[C@H]3C(=O)N[C@]4(C(=O)NS(=O)(=O)N(C)C)C[C@H]4/C=C\CCCCC[C@H](NC(=O)OC(C)(C)C)C(=O)N3C2)nc2c(-c3nc(-c4ccc(F)cc4)cs3)cccc21 [Compound 134]
EC50 [1, 3]: 10 to 100 nM | IC50 [2]: < 10 nM

CC(C)n1c(O[C@@H]2C[C@H]3C(=O)N[C@]4(C(=O)NS(=O)(=O)C5(C)CC5)C[C@H]4/C=C\CCCCC[C@H](NC(=O)OC(C)(C)C)C(=O)N3C2)nc2c(-c3nc(-c4cccc(Cl)c4)cs3)cccc21 [Compound 101]
EC50 [1, 3]: 10 to 100 nM | IC50 [2]: < 10 nM

CC(C)n1c(O[C@@H]2C[C@H]3C(=O)N[C@]4(C(=O)NS(=O)(=O)C5CC5)C[C@H]4/C=C\CCCCC[C@H](NC(=O)OC(C)(C)C)C(=O)N3C2)nc2c(-c3nc(C4CCNCC4)cs3)cccc21 [Compound 190]
EC50 [1, 3]: < 10 nM | IC50 [2]: < 10 nM
